Read-outs that look alike come from different tables or passages of the source. Bridge positions count the residues as written; N and C are the ends. Square brackets hold non-standard residues; d marks the D form. Peptide text beside a SMILES is read from it. Pro(4R-NH2) = N[C@H]1CN[C@H](C(=O)O)C1; Gly(N-2-aminoethyl) = NCCNCC(=O)O; Hyp = O=C(O)[C@@H]1C[C@@H](O)CN1; Cha = N[C@@H](CC1CCCCC1)C(=O)O; Gly(N(CH2)3NH2) = NCCCNCC(=O)O; Pen = CC(C)(S)[C@H](N)C(=O)O; dDab = NCC[C@@H](N)C(=O)O; Dab = NCC[C@H](N)C(=O)O; Nlys = NCCCCNCC(=O)O
Legend:
[1] = system: Klebsiella pneumoniae SSI3010; conditions: SSI3010
Method in brief: (§1)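 Standardized inocula (0.5 McFarland in saline, then diluted in MHII broth to approximately 5×10^5 CFU/mL) were exposed to two-fold dilution series of each peptide in the presence of polysorbate 80 (0.002% final).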

[2] = system: Escherichia coli MCR-1 Af 45
Method in brief: as §1

[3] = system: Escherichia coli ATCC 25922; conditions: ATCC 25922
Method in brief: as §1

[4] = system: human red blood cells (hRBC); test: Hemolysis of human red blood cells; format: cell-based; conditions: red cells of human, 1 h
Method in brief: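 Percent hemolysis is OD540 of peptide-treated supernatant relative to water-lysed cells. Each peptide was tested at 200 μg/mL against 20% (v/v) washed human erythrocytes. Incubation was 1 h at 37 °C, 300 rpm.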

[5] = Mueller-Hinton broth II, 18-20 hours at 35° C.

| SMILES | Escherichia coli MCR-1 Af 45 MIC ([2]; MCR-1 Af 45) [µg/mL] | Klebsiella pneumoniae SSI3010 MIC [1] [µg/mL] | Escherichia coli MCR-1 Af 45 MIC [2, 5] [µg/mL] | Escherichia coli ATCC 25922 MIC [3] [µg/mL] | Hemolysis at 0.2 g/L [4] [%] |
| --- | --- | --- | --- | --- | --- |
| CC[C@H](C)[C@@H]1NC(=O)[C@@H](CCN)NC(=O)[C@H]([C@@H](C)O)NC(=O)[C@H](CCN)NC(=O)[C@H](CCCNC(=N)N)NC(=O)[C@H](CC(N)=O)NC(=O)[C@@H](NC(=O)[C@H](Cc2ccc(O)cc2)NC(=O)[C@@H](NC(=O)[C@@H](NC(=O)[C@@H]2C[C@@H](O)CN2C(=O)[C@@H](N)C(C)C)[C@@H](C)CC)[C@@H](C)O)C(C)(C)SSC[C@@H](C(=O)N[C@@H](CCN)C(=O)N[C@@H](CCCNC(=N)N)C(=O)N[C@@H](Cc2ccc(O)cc2)C(=O)O)NC1=O [Example 169] (HELM PEPTIDE1{V.[Hyp].I.T.Y.[Pen].N.R.[Dab].T.[NCC[C@@H](N[*:1])C(=O)[*:2]].I.C.[Dab].R.Y}$PEPTIDE1,PEPTIDE1,6:R3-13:R3$$$V2.0) | – | 0.5 | 0.25 | 0.5 | 0 |
| CC[C@H](C)[C@H](NC(=O)[C@@H]1C[C@@H](O)CN1C(=O)[C@@H](N)C(C)C)C(=O)N[C@H](C(=O)N[C@@H](Cc1c[nH]c2ccccc12)C(=O)N[C@@H]1C(=O)N[C@@H](CC(N)=O)C(=O)N[C@@H](CCCNC(=N)N)C(=O)N[C@@H](CCN)C(=O)N[C@@H]([C@@H](C)O)C(=O)N[C@H](CCN)C(=O)N[C@@H](CCCCN)C(=O)N[C@H](C(=O)N[C@@H](CCN)C(=O)N[C@@H](CCCNC(=N)N)C(=O)N[C@@H](Cc2ccc(O)cc2)C(=O)O)CSSC1(C)C)[C@@H](C)O [Example 160] (HELM PEPTIDE1{V.[Hyp].I.T.W.[Pen].N.R.[Dab].T.[NCC[C@@H](N[*:1])C(=O)[*:2]].K.C.[Dab].R.Y}$PEPTIDE1,PEPTIDE1,6:R3-13:R3$$$V2.0) | – | 0.5 | 0.25 | 0.25 | 0 |
| CC[C@H](C)[C@@H]1NC(=O)[C@@H](NC(=O)[C@H](Cc2ccc(O)cc2)NC(=O)[C@@H](NC(=O)[C@@H](NC(=O)[C@@H]2C[C@@H](O)CN2C(=O)[C@@H](N)C(C)C)[C@@H](C)CC)[C@@H](C)O)C(C)(C)SSC[C@@H](C(=O)N[C@@H](CCN)C(=O)N[C@@H](CCCNC(=N)N)C(=O)N[C@@H](Cc2ccc(O)cc2)C(=O)O)NC(=O)[C@H](CCCCN)NC(=O)[C@@H](CCN)NC(=O)[C@H]([C@@H](C)O)NC(=O)[C@H](CCN)NC(=O)[C@H](CCCNC(=N)N)NC1=O [Example 163] (HELM PEPTIDE1{V.[Hyp].I.T.Y.[Pen].I.R.[Dab].T.[NCC[C@@H](N[*:1])C(=O)[*:2]].K.C.[Dab].R.Y}$PEPTIDE1,PEPTIDE1,6:R3-13:R3$$$V2.0) | – | 0.5 | 0.125 | 0.125 | 0 |
| CC[C@H](C)[C@H](NC(=O)[C@@H]1C[C@@H](O)CN1C(=O)[C@@H](N)C(C)C)C(=O)N[C@H](C(=O)N[C@@H](Cc1ccc(O)cc1)C(=O)N[C@@H]1C(=O)N[C@@H](CC(N)=O)C(=O)N[C@@H](CCCNC(=N)N)C(=O)N[C@@H](CCN)C(=O)N[C@@H]([C@@H](C)O)C(=O)N[C@H](CCN)C(=O)N[C@@H](CCCCN)C(=O)N[C@H](C(=O)N[C@@H](CCN)C(=O)N[C@@H](CCCNC(=N)N)C(=O)N[C@@H](Cc2ccc(O)cc2)C(=O)O)CSSC1(C)C)[C@@H](C)O [Example 148] (HELM PEPTIDE1{V.[Hyp].I.T.Y.[Pen].N.R.[Dab].T.[NCC[C@@H](N[*:1])C(=O)[*:2]].K.C.[Dab].R.Y}$PEPTIDE1,PEPTIDE1,6:R3-13:R3$$$V2.0) | – | 0.25 | 0.125 | ≤0.125 | 0 |
| CC[C@H](C)[C@H](NC(=O)[C@@H]1C[C@@H](O)CN1C(=O)[C@@H](NC(=N)N)C(C)C)C(=O)N[C@H](C(=O)N[C@@H](Cc1ccc(O)cc1)C(=O)N[C@@H]1C(=O)N[C@@H](CC(N)=O)C(=O)N[C@@H](CCCNC(=N)N)C(=O)N[C@@H](CCN)C(=O)N[C@@H](CO)C(=O)N[C@H](CCN)C(=O)N[C@@H](CCCCN)C(=O)N[C@H](C(=O)N[C@@H](CCN)C(=O)N[C@@H](CCCNC(=N)N)C(=O)N[C@@H](Cc2ccc(O)cc2)C(=O)O)CSSC1(C)C)[C@@H](C)O [Example 196] (HELM PEPTIDE1{[CC(C)[C@H](NC(=N)N)C(=O)[*:2]].[Hyp].I.T.Y.[Pen].N.R.[Dab].S.[NCC[C@@H](N[*:1])C(=O)[*:2]].K.C.[Dab].R.Y}$PEPTIDE1,PEPTIDE1,6:R3-13:R3$$$V2.0) | – | 0.125 | 0.0625 | 0.125 | 0 |

Continued, in another order:

| Escherichia coli MCR-1 Af 45 MIC ([2]; MCR-1 Af 45) [µg/mL] | SMILES | Klebsiella pneumoniae SSI3010 MIC [1] [µg/mL] | Escherichia coli MCR-1 Af 45 MIC [2, 5] [µg/mL] | Escherichia coli ATCC 25922 MIC [3] [µg/mL] | Hemolysis at 0.2 g/L [4] [%] |
| --- | --- | --- | --- | --- | --- |
| 0.125 | CC[C@H](C)[C@H](NC(=O)[C@@H]1C[C@@H](N)CN1C(=O)[C@@H](NC(=O)[C@@H]1C[C@@H](O)CN1C(=O)CNCCCN)C(C)C)C(=O)N[C@H](C(=O)N[C@@H](Cc1ccc(O)cc1)C(=O)N[C@@H]1C(=O)N[C@@H](CC(N)=O)C(=O)N[C@@H](CCCNC(=N)N)C(=O)N[C@@H](CCN)C(=O)N[C@@H]([C@@H](C)O)C(=O)N[C@H](CCN)C(=O)N[C@@H](CCCCN)C(=O)N[C@H](C(=O)N[C@@H](Cc2ccc(O)cc2)C(=O)N[C@@H](CCCNC(=N)N)C(=O)N[C@@H](Cc2ccc(O)cc2)C(=O)O)CSSC1(C)C)[C@@H](C)O [Example 58, Norn-Hyp-Val-Pro((4R)NH2)-Ile-Thr-Tyr-Pen-Asn-Arg-Dab-Thr-^DDab-Lys-Cys-Tyr-Arg-Tyr] (H-[Gly(N(CH2)3NH2)][Hyp]V[Pro(4R-NH2)]ITY[Pen]NR[Dab]T[dDab]KCYRY-OH; disulfide 8-15) | 0.25 | – | 0.25 | 0 |
| ≤0.03125 | CC[C@H](C)[C@H](NC(=O)CN(CCCN)C(=O)[C@@H](NC(=O)CNCCCN)C(C)C)C(=O)N[C@H](C(=O)N[C@@H](Cc1ccc(O)cc1)C(=O)N[C@@H]1C(=O)N[C@@H](CC(N)=O)C(=O)N[C@@H](CCCNC(=N)N)C(=O)N[C@@H](CCN)C(=O)N[C@@H]([C@@H](C)O)C(=O)N[C@H](CCN)C(=O)N[C@@H](CCCCN)C(=O)N[C@H](C(=O)N[C@@H](CCN)C(=O)N[C@@H](CCCNC(=N)N)C(=O)N[C@@H](CC2CCCCC2)C(=O)O)CSSC1(C)C)[C@@H](C)CC [Example 22, Norn-Val-Norn-Ile-Ile-Tyr-Pen-Asn-Arg-Dab-Thr-^DDab-Lys-Cys-Dab-Arg-Cha] (H-[Gly(N(CH2)3NH2)]V[Gly(N(CH2)3NH2)]IIY[Pen]NR[Dab]T[dDab]KC[Dab]R[Cha]-OH; disulfide 7-14) | 0.0625 | – | 0.0625 | 0 |
| 0.0625 | CC[C@H](C)[C@H](NC(=O)[C@@H](NC(=O)[C@@H]1CCCN1C(=O)[C@@H](NC(=O)[C@@H]1C[C@@H](N)CN1C(=O)[C@H](CCCCN)NC(=O)[C@@H](N)CCCCN)C(C)C)[C@@H](C)CC)C(=O)N[C@@H](Cc1ccc(O)cc1)C(=O)N[C@@H]1C(=O)N[C@@H](CC(N)=O)C(=O)N[C@@H](CCCNC(=N)N)C(=O)N[C@@H](CCN)C(=O)N[C@@H]([C@@H](C)O)C(=O)N[C@H](CCN)C(=O)N[C@@H](CCCCN)C(=O)N[C@H](C(=O)N[C@@H](CCN)C(=O)N[C@@H](CCCNC(=N)N)C(=O)N[C@@H](Cc2ccc(O)cc2)C(=O)O)CSSC1(C)C [Example 114, Lys-Lys-Pro((4R)NH2)-Val-Pro-Ile-Ile-Tyr-Pen-Asn-Arg-^Dab-Thr-^DDab-Lys-Cys-Dab-Arg-Tyr] (HELM PEPTIDE1{K.K.[N[C@@H]1C[C@@H](C(=O)[*:2])N([*:1])C1].V.P.I.I.Y.[Pen].N.R.[Dab].T.[NCC[C@@H](N[*:1])C(=O)[*:2]].K.C.[Dab].R.Y}$PEPTIDE1,PEPTIDE1,9:R3-16:R3$$$V2.0) | 0.0625 | – | 0.0625 | 0 |
| 0.25 | CCCC[C@H](NC(=O)[C@H](CCCNC(=N)N)NC(=O)[C@H](CCC(N)=O)NC(=O)[C@@H]1CSSC[C@H](NC(=O)[C@H](Cc2ccc(O)cc2)NC(=O)[C@@H](NC(=O)[C@@H](NC(=O)[C@@H]2CCCN2C(=O)[C@@H](NC(=O)[C@@H]2CCCN2C(=O)[C@H](CCCCN)NC(=O)[C@@H](N)CCCCN)C(C)C)[C@@H](C)CC)[C@@H](C)CC)C(=O)N[C@@H](CC(N)=O)C(=O)N[C@@H](CCCNC(=N)N)C(=O)N[C@@H](CCN)C(=O)N[C@@H]([C@@H](C)O)C(=O)N[C@H](CCN)C(=O)N[C@@H](CCCCN)C(=O)N1)C(=O)O [Example 67] (HELM PEPTIDE1{K.K.P.V.P.I.I.Y.C.N.R.[Dab].T.[NCC[C@@H](N[*:1])C(=O)[*:2]].K.C.Q.R.[Nle]}$PEPTIDE1,PEPTIDE1,9:R3-16:R3$$$V2.0) | 0.25 | – | 0.125 | 0 |
| 0.125 | CC[C@H](C)[C@H](NC(=O)[C@@H]1C[C@@H](O)CN1C(=O)[C@@H](NC(=O)CN(CCN)C(=O)CNCCCCN)C(C)C)C(=O)N[C@H](C(=O)N[C@@H](Cc1ccc(O)cc1)C(=O)N[C@@H]1C(=O)N[C@@H](CC(N)=O)C(=O)N[C@@H](CCCNC(=N)N)C(=O)N[C@@H](CCN)C(=O)N[C@@H]([C@@H](C)O)C(=O)N[C@H](CCN)C(=O)N[C@@H](CCCCN)C(=O)N[C@H](C(=O)N[C@@H](Cc2ccc(O)cc2)C(=O)N[C@@H](CCCNC(=N)N)C(=O)N[C@@H](Cc2ccc(O)cc2)C(=O)O)CSSC1(C)C)[C@@H](C)O [Example 61, Nlys-Ndab-Val-Hyp-Ile-Thr-Tyr-Pen-Asn-Arg-Dab-Thr-^DDab-Lys-Cys-Tyr-Arg-Tyr] (H-[Nlys][Gly(N-2-aminoethyl)]V[Hyp]ITY[Pen]NR[Dab]T[dDab]KCYRY-OH; disulfide 8-15) | 0.125 | – | 0.25 | 0 |

From patent US20230295234A1, “ANTIMICROBIAL PEPTIDOMIMETICS” (SPEXIS AG, priority 2020, published 2023)
